Literature values, collected in publication PMC7587962, “Evaluation of Cytotoxicity and α-Glucosidase Inhibitory Activity of Amide and Polyamino-Derivatives of Lupane Triterpenoids” (Molecules, 2020).

Experiments:
CCRF-CEM = system: CCRF-CEM; set-up: method as in PMID 25405285; details: standard drugs used by NCI as control; cited from earlier work
K-562 = system: K-562; set-up: method as in PMID 25405285; details: standard drugs used by NCI as control; cited from earlier work
MOLT-4 = system: MOLT-4; set-up: method as in PMID 25405285; details: standard drugs used by NCI as control; cited from earlier work
RPMI-8226 = system: RPMI-8226; set-up: method as in PMID 25405285; details: standard drugs used by NCI as control; cited from earlier work
A549/ATCC = system: A549/ATCC; set-up: method as in PMID 25405285; details: standard drugs used by NCI as control; cited from earlier work
HOP-62 = system: HOP-62; set-up: method as in PMID 25405285; details: standard drugs used by NCI as control; cited from earlier work
HOP-92 = system: HOP-92; set-up: method as in PMID 25405285; details: standard drugs used by NCI as control; cited from earlier work
NCI-H226 = system: NCI-H226; set-up: method as in PMID 25405285; details: standard drugs used by NCI as control; cited from earlier work
NCI-H23 = system: NCI-H23; set-up: method as in PMID 25405285; details: standard drugs used by NCI as control; cited from earlier work
NCI-H460 = system: NCI-H460; set-up: method as in PMID 25405285; details: standard drugs used by NCI as control; cited from earlier work
NCI-H522 = system: NCI-H522; set-up: method as in PMID 25405285; details: standard drugs used by NCI as control; cited from earlier work
COLO 205 = system: COLO 205; set-up: method as in PMID 25405285; details: standard drugs used by NCI as control; cited from earlier work
HCC-2998 = system: HCC-2998; set-up: method as in PMID 25405285; details: standard drugs used by NCI as control; cited from earlier work
HCT-116 = system: HCT-116; set-up: method as in PMID 25405285; details: standard drugs used by NCI as control; cited from earlier work
HCT-15 = system: HCT-15; set-up: method as in PMID 25405285; details: standard drugs used by NCI as control; cited from earlier work
HT29 = system: HT29; set-up: method as in PMID 25405285; details: standard drugs used by NCI as control; cited from earlier work
KM12 = system: KM12; set-up: method as in PMID 25405285; details: standard drugs used by NCI as control; cited from earlier work
SW-620 = system: SW-620; set-up: method as in PMID 25405285; details: standard drugs used by NCI as control; cited from earlier work
SF-268 = system: SF-268; set-up: method as in PMID 25405285; details: standard drugs used by NCI as control; cited from earlier work
SF-539 = system: SF-539; set-up: method as in PMID 25405285; details: standard drugs used by NCI as control; cited from earlier work
SNB-19 = system: SNB-19; set-up: method as in PMID 25405285; details: standard drugs used by NCI as control; cited from earlier work
SNB-75 = system: SNB-75; set-up: method as in PMID 25405285; details: standard drugs used by NCI as control; cited from earlier work
U251 = system: U251; set-up: method as in PMID 25405285; details: standard drugs used by NCI as control; cited from earlier work
LOX IMVI = system: LOX IMVI; set-up: method as in PMID 25405285; details: standard drugs used by NCI as control; cited from earlier work
MALME-3M = system: MALME-3M; set-up: method as in PMID 25405285; details: standard drugs used by NCI as control; cited from earlier work
M14 = system: M14; set-up: method as in PMID 25405285; details: standard drugs used by NCI as control; cited from earlier work
MDA-MB-435 = system: MDA-MB-435; set-up: method as in PMID 25405285; details: standard drugs used by NCI as control; cited from earlier work
SK-MEL-2 = system: SK-MEL-2; set-up: method as in PMID 25405285; details: standard drugs used by NCI as control; cited from earlier work
SK-MEL-28 = system: SK-MEL-28; set-up: method as in PMID 25405285; details: standard drugs used by NCI as control; cited from earlier work
SK-MEL-5 = system: SK-MEL-5; set-up: method as in PMID 25405285; details: standard drugs used by NCI as control; cited from earlier work
UACC-257 = system: UACC-257; set-up: method as in PMID 25405285; details: standard drugs used by NCI as control; cited from earlier work
UACC-62 = system: UACC-62; set-up: method as in PMID 25405285; details: standard drugs used by NCI as control; cited from earlier work
IGROV1 = system: IGROV1; set-up: method as in PMID 25405285; details: standard drugs used by NCI as control; cited from earlier work
OVCAR-3 = system: OVCAR-3; set-up: method as in PMID 25405285; details: standard drugs used by NCI as control; cited from earlier work
OVCAR-4 = system: OVCAR-4; set-up: method as in PMID 25405285; details: standard drugs used by NCI as control; cited from earlier work
OVCAR-5 = system: OVCAR-5; set-up: method as in PMID 25405285; details: standard drugs used by NCI as control; cited from earlier work
OVCAR-8 = system: OVCAR-8; set-up: method as in PMID 25405285; details: standard drugs used by NCI as control; cited from earlier work
NCI/ADR-RES = system: NCI/ADR-RES; set-up: method as in PMID 25405285; details: standard drugs used by NCI as control; cited from earlier work
SK-OV-3 = system: SK-OV-3; set-up: method as in PMID 25405285; details: standard drugs used by NCI as control; cited from earlier work
786-0 = system: 786-0; set-up: method as in PMID 25405285; details: standard drugs used by NCI as control; cited from earlier work
A498 = system: A498; set-up: method as in PMID 25405285; details: standard drugs used by NCI as control; cited from earlier work
ACHN = system: ACHN; set-up: method as in PMID 25405285; details: standard drugs used by NCI as control; cited from earlier work
CAKI-1 = system: CAKI-1; set-up: method as in PMID 25405285; details: standard drugs used by NCI as control; cited from earlier work
RXF 393 = system: RXF 393; set-up: method as in PMID 25405285; details: standard drugs used by NCI as control; cited from earlier work
SN12C = system: SN12C; set-up: method as in PMID 25405285; details: standard drugs used by NCI as control; cited from earlier work
TK-10 = system: TK-10; set-up: method as in PMID 25405285; details: standard drugs used by NCI as control; cited from earlier work
UO-31 = system: UO-31; set-up: method as in PMID 25405285; details: standard drugs used by NCI as control; cited from earlier work
PC-3 = system: PC-3; set-up: method as in PMID 25405285; details: standard drugs used by NCI as control; cited from earlier work
DU-145 = system: DU-145; set-up: method as in PMID 25405285; details: standard drugs used by NCI as control; cited from earlier work
MCF7 = system: MCF7; set-up: method as in PMID 25405285; details: standard drugs used by NCI as control; cited from earlier work
MDA-MB-231/ATCC = system: MDA-MB-231/ATCC; set-up: method as in PMID 25405285; details: MDA-MB-31/ATCC; standard drugs used by NCI as control; cited from earlier work
HS 578T = system: HS 578T; set-up: method as in PMID 25405285; details: standard drugs used by NCI as control; cited from earlier work
BT-549 = system: BT-549; set-up: method as in PMID 25405285; details: standard drugs used by NCI as control; cited from earlier work
T-47D = system: T-47D; set-up: method as in PMID 25405285; details: standard drugs used by NCI as control; cited from earlier work
HL-60(TB) = details: standard drugs used by NCI as control; cited from earlier work

Structure (SMILES): O=c1[nH]cc(F)c(=O)[nH]1 [Compound 5-FU, 5-fluorouracil]
- GI50 (CCRF-CEM): 9970 nM
- GI50 (K-562): 3580 nM
- GI50 (MOLT-4): 350 nM
- GI50 (RPMI-8226): 40 nM
- GI50 (A549/ATCC): 180 nM
- GI50 (HOP-62): 390 nM
- GI50 (HOP-92): 77900 nM
- GI50 (NCI-H226): 54700 nM
- GI50 (NCI-H23): 330 nM
- GI50 (NCI-H460): 50 nM
- GI50 (NCI-H522): 7270 nM
- GI50 (COLO 205): 150 nM
- GI50 (HCC-2998): 50 nM
- GI50 (HCT-116): 220 nM
- GI50 (HCT-15): 110 nM
- GI50 (HT29): 170 nM
- GI50 (KM12): 210 nM
- GI50 (SW-620): 920 nM
- GI50 (SF-268): 1620 nM
- GI50 (SF-539): 60 nM
- GI50 (SNB-19): 3810 nM
- GI50 (SNB-75): 78700 nM
- GI50 (U251): 920 nM
- GI50 (LOX IMVI): 240 nM
- GI50 (MALME-3M): 50 nM
- GI50 (M14): 980 nM
- GI50 (MDA-MB-435): 70 nM
- GI50 (SK-MEL-2): 56700 nM
- GI50 (SK-MEL-28): 1030 nM
- GI50 (SK-MEL-5): 460 nM
- GI50 (UACC-257): 3550 nM
- GI50 (UACC-62): 520 nM
- GI50 (IGROV1): 1220 nM
- GI50 (OVCAR-3): 10 nM
- GI50 (OVCAR-4): 4430 nM
- GI50 (OVCAR-5): 10900 nM
- GI50 (OVCAR-8): 1740 nM
- GI50 (NCI/ADR-RES): 310 nM
- GI50 (SK-OV-3): 21800 nM
- GI50 (786-0): 720 nM
- GI50 (A498): 350 nM
- GI50 (ACHN): 270 nM
- GI50 (CAKI-1): 70 nM
- GI50 (RXF 393): 2610 nM
- GI50 (SN12C): 490 nM
- GI50 (TK-10): 1120 nM
- GI50 (UO-31): 1420 nM
- GI50 (PC-3): 2360 nM
- GI50 (DU-145): 360 nM
- GI50 (MCF7): 70 nM
- GI50 (MDA-MB-231/ATCC): 6600 nM
- GI50 (HS 578T): 9770 nM
- GI50 (BT-549): 10600 nM
- GI50 (T-47D): 8120 nM
- GI50 (HL-60(TB)): 2300 nM
